Measured values from US20240279218A1 (Hoffmann-La Roche Inc., priority 2016, published 2024).
pKi: −log10 of the molar value. Read-outs that look alike come from different tables or passages of the source.

Columns and labels:
h-GABA-A α5β3γ2 [1] = target: T1, h-GABA-A α5β3γ2 (Homo sapiens (Human), UniProt P18507+P31644); experiment: Two-electrode voltage clamp electrophysiology in Xenopus oocytes expressing GABAA receptors, modulation of GABA EC20 current; assay type: cell-based
Procedure, shortened: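 Values are % modulation of an EC20 GABA response, derived point by point from the ratio of compound-exposed versus control current traces (extremum taken, 100×(fold−1)). Recordings used oocytes injected with human α5, β3, γ2 mRNA, clamped at −80 mV at room temperature, at least 3 oocytes each.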

h-GABA-A α5β3γ2 [2] = target: T1, h-GABA-A α5β3γ2; experiment: [3H]flumazenil competition binding assay, membranes of HEK293 cells expressing human GABAA receptors
Procedure, shortened: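 Membranes were prepared from HEK293 cells with transient human α5β3γ2 expression and assayed in Krebs-tris, pH 7.5. Bound radioactivity measured on filters by liquid scintillation.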

[3] = % modulation of GABA EC20 = 100*(Fold increase−1), Xenopus oocytes
[4] = Xenopus oocytes, GABA EC20, test compound at approx. 30 fold its Ki
[5] = displacement of [3H]flumazenil 0.5 nM, HEK293 cells expressing human receptors, mean of two determinations, read-out: Ki h-GABA-A α5β3γ2

Row | Compound | Efficacy (GABA) % (h-GABA-A α5β3γ2 [1]; [3]) | Fold increase h-GABA-A α5β3γ2 oocyte (h-GABA-A α5β3γ2 [1]; [4]) | pKi (h-GABA-A α5β3γ2 [2]; [5]) | Efficacy (GABA) % (h-GABA-A α5β3γ2 [1]; reference compounds, % modulation of GABA EC20) | Fold increase h-GABA-A α5β3γ2 oocyte (h-GABA-A α5β3γ2 [1]; reference compounds, GABAA α5β3γ2 overexpressing oocytes, GABA EC20) | pKi (h-GABA-A α5β3γ2 [2]; reference compounds, GABAA receptor α5β3γ2, read-out: Ki α5-human)
1 | CCO[C@H]1CC[C@H](NC(=O)c2ccc(OCc3c(-c4ccc(C)nc4)noc3C)nn2)CC1 [Example 195, N-(4-ethoxycyclohexyl)-6-((5-methyl-3-(6-methylpyridin-3-yl)-1,2-oxazol-4-yl)methoxy)pyridazine-3-carboxamide] | 78% | 1.78 | 7.76 |  |  | 
2 | Cc1ccc(-c2noc(C)c2COc2cc3c(cn2)C(=O)N(CCO)C3)cn1 [Example 12, 2-(2-hydroxyethyl)-6-((5-methyl-3-(6-methylpyridin-3-yl)isoxazol-4-yl)methoxy)-1H-pyrrolo[3,4-c]pyridin-3(2H)-one] | 74% | 1.74 | 7.79 |  |  | 
3 | CCC[C@@H](CO)NC(=O)c1ccc(OCc2c(-c3ccc(C)nn3)noc2C)nc1 [Example 109, N-((1S)-1-(hydroxymethyl)butyl)-6-((5-methyl-3-(6-methylpyridazin-3-yl)isoxazol-4-yl)methoxy)pyridine-3-carboxamide] | 42% | 1.42 | 9.10 |  |  | 
4 | Cc1ccc(-c2noc(C)c2COc2ccc(C(=O)N3C4COCC3C4)nn2)cn1 [Example 157, 3-oxa-6-azabicyclo[3.1.1]heptan-6-yl(6-((5-methyl-3-(6-methylpyridin-3-yl)isoxazol-4-yl)methoxy)pyridazin-3-yl)methanone] | 76% | 1.76 | 8.22 |  |  | 
5 | Cc1ccc(-c2noc(C3CC3)c2COc2ccc(C(=O)N[C@H]3CCOC3)nn2)cn1 [Example 182] | 141% | 2.41 | 7.22 |  |  | 
6 | Cc1ccc(-c2noc(C)c2COc2cc3c(cn2)C(=O)N(C2CCC(F)(F)CC2)C3)cn1 [Example 96, 2-(4,4-difluorocyclohexyl)-6-((5-methyl-3-(6-methylpyridin-3-yl)isoxazol-4-yl)methoxy)-1H-pyrrolo[3,4-c]pyridin-3(2H)-one] | 88% | 1.88 | 8.14 |  |  | 
7 | Cc1ccc(-c2noc(C)c2COc2cnc(C(=O)NCC3CC3)cn2)cn1 [Example 95, N-(cyclopropylmethyl)-5-((5-methyl-3-(6-methylpyridin-3-yl)isoxazol-4-yl)methoxy)pyrazine-2-carboxamide] | 67% | 1.67 | 7.87 |  |  | 
8 | Cc1ccc(-c2noc(C)c2COc2ccc(C(=O)N[C@H]3CC[C@](O)(C(F)(F)F)C3)nn2)cn1 (single isomer, unassigned) [Example 150] | 69% | 1.69 | 7.78 |  |  | 
9 | CCC[C@@H](CO)NC(=O)c1ccc(OCc2c(-c3ccc(C)nc3)noc2C)nn1 [Example 7, (S)—N-(1-hydroxypentan-2-yl)-6-((5-methyl-3-(6-methylpyridin-3-yl)isoxazol-4-yl)methoxy)pyridazine-3-carboxamide] | 102% | 2.02 | 7.59 |  |  | 
10 | Cc1ccc(-c2noc(C)c2COc2ccc(C(N)=O)cn2)cn1 [Example 17, 6-((5-methyl-3-(6-methylpyridin-3-yl)isoxazol-4-yl)methoxy)nicotinamide] | 60% | 1.6 | 8.01 |  |  | 
11 | Cc1onc(-c2ccc(C(F)(F)F)nc2)c1COc1ccc(C(=O)NC2CCOCC2)nn1 [Example 185, 6-((5-methyl-3-(6-(trifluoromethyl)pyridin-3-yl)isoxazol-4-yl)methoxy)-N-(tetrahydropyran-4-yl)pyridazine-3-carboxamide] | 124% | 2.24 | 7.15 |  |  | 
12 | Cc1ccc(-c2noc(C)c2COc2ccc(C(N)=O)nn2)cn1 [Example 18, 6-((5-methyl-3-(6-methylpyridin-3-yl)isoxazol-4-yl)methoxy)pyridazine-3-carboxamide] | 59% | 1.59 | 7.99 |  |  | 
13 | CC[C@@H](CC#N)NC(=O)c1ccc(OCc2c(-c3ccc(C)nc3)noc2C)nn1 [Example 88, (S)—N-(1-cyanobutan-2-yl)-6-((5-methyl-3-(6-methylpyridin-3-yl)isoxazol-4-yl)methoxy)pyridazine-3-carboxamide] | 68% | 1.68 | 7.39 |  |  | 
14 | Cc1ccc(-c2noc(C)c2COc2ccc(C(=O)N[C@H]3CCS(=O)(=O)C3)cn2)cn1 [Example 19, N-((3S)-1,1-dioxothiolan-3-yl)-6-((5-methyl-3-(6-methylpyridin-3-yl)-1,2-oxazol-4-yl)methoxy)pyridine-3-carboxamide] | 77% | 1.77 | 8.28 |  |  | 
15 | Cc1ccc(-c2noc(C)c2COc2ccc(C(=O)N3CC(C#N)C3)nn2)cn1 [Example 84, 1-(6-((5-methyl-3-(6-methylpyridin-3-yl)isoxazol-4-yl)methoxy)pyridazine-3-carbonyl)azetidine-3-carbonitrile] | 54% | 1.54 | 7.72 |  |  | 
16 | Cc1ccc(-c2noc(C)c2COc2ccc(C(=O)N3CC(F)(F)C3)nn2)cn1 [Example 47, (3,3-difluoroazetidin-1-yl)(6-((5-methyl-3-(6-methylpyridin-3-yl)isoxazol-4-yl)methoxy)pyridazin-3-yl)methanone] | 68% | 1.68 | 7.89 |  |  | 
17 | Cc1ccc(-c2noc(C)c2COc2ccc(C(=O)NC3CCS(=O)(=O)CC3)cn2)cn1 [Example 21, N-(1,1-dioxothian-4-yl)-6-((5-methyl-3-(6-methylpyridin-3-yl)-1,2-oxazol-4-yl)methoxy)pyridine-3-carboxamide] | 119% | 2.19 | 8.27 |  |  | 
18 | Cc1ccc(-c2noc(C)c2COc2ccc(C(=O)NC3(C#N)CC3)nn2)cn1 [Example 69, N-(1-cyanocyclopropyl)-6-((5-methyl-3-(6-methylpyridin-3-yl)isoxazol-4-yl)methoxy)pyridazine-3-carboxamide] | 86% | 1.86 | 8.11 |  |  | 
19 | Cc1ccc(-c2noc(C)c2COc2ccc(C(=O)NC3CCOCC3)cn2)cc1 [RO-251, reference compound] |  |  |  | −18% | 0.82 | 9.00
20 | Cc1ccc(-c2noc(C)c2COc2ccc(C(=O)NC3(C)CCOCC3)nn2)cn1 [Example 97, 6-((5-methyl-3-(6-methylpyridin-3-yl)isoxazol-4-yl)methoxy)-N-(4-methyltetrahydropyran-4-yl)pyridazine-3-carboxamide] | 71% | 1.71 | 7.87 |  |  | 
21 | Cc1ccc(-c2noc(C)c2COc2ccc(C(=O)NC(C)(CO)CO)nn2)cn1 [Example 147, N-(1,3-dihydroxy-2-methylpropan-2-yl)-6-((5-methyl-3-(6-methylpyridin-3-yl)isoxazol-4-yl)methoxy)pyridazine-3-carboxamide] | 48% | 1.48 | 8.02 |  |  | 
22 | CC1(NC(=O)c2ccc(OCc3c(-c4ccc(Cl)nc4)noc3C3CC3)nn2)COC1 [Example 177] | 109% | 2.09 | 7.40 |  |  | 
23 | Cc1ccc(-c2noc(C)c2COc2ccc(C(=O)NC3CC(F)(F)C3)nn2)cn1 [Example 42, N-(3,3-difluorocyclobutyl)-6-((5-methyl-3-(6-methylpyridin-3-yl)isoxazol-4-yl)methoxy)pyridazine-3-carboxamide] | 81% | 1.81 | 8.05 |  |  | 
24 | CCC[C@H](CO)NC(=O)c1ccc(OCc2c(-c3ccc(C)nc3)noc2C)nc1 [Example 124, (R)—N-(1-hydroxypentan-2-yl)-6-((5-methyl-3-(6-methylpyridin-3-yl)isoxazol-4-yl)methoxy)pyridine-3-carboxamide] | 47% | 1.47 | 7.44 |  |  | 
